Experimental data taken from the METLIN SMRT retention time set (Domingo-Almenara et al. 2019).

Assay: gradient 5% acetonitrile 3 min, to 50% in 2 min, to 85% in 15 min, held 3 min, 100 µL/min
Settings: column: Zorbax Extend-C18 2.1 x 50 mm; eluents: water / acetonitrile, 0.1% formic acid
How it was run: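 Over 3 months, pure standards in mixtures of ~100 molecules were run by HPLC coupled to a quadrupole time-of-flight mass spectrometer in positive and negative ionization mode. The column was a Zorbax Extend-C18 (2.1 × 50 mm, 1.8 μm) at 100 μL/min, eluted with water and acetonitrile each holding 0.1% formic acid, with 40 μL dead and 900 μL dwell volumes. Retention time was determined from adduct peaks chosen by software and checked manually.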

Row | Structure (SMILES) | RP-LC retention time
1 | CCc1ccc(-c2nc(C3CC(=O)N(c4ccc(F)c(Cl)c4)C3)no2)cc1 (centres undefined) | 1200 s
2 | CNC(=O)Nc1ccc(C2(C(=O)Nc3cc(C)cc(C)c3)CCC2)cc1 | 822 s
3 | Cc1ccc(NC(=O)Cn2c(C)nc3onc(C)c3c2=O)c(Cl)c1 | 835 s
4 | O=C(Nc1ccccc1Cl)C1=Cc2ccccc2OC1 | 975 s
5 | CS(=O)(=O)N1CCC(C(=O)NCC2CCN(C(=O)Nc3ccc(F)cc3)CC2)CC1 | 622 s
6 | Cc1ccc(OCC(=O)NC[C@@]23CCC[C@H]2N(C)C(=O)CC3)cc1 | 674 s
7 | CCNC(=O)Cn1c(=O)c2cnc(-c3ccc(Cl)cc3)nc2n(C)c1=O | 927 s
8 | Cc1nc2nc(-c3ccc(C(C)(C)C)cc3)nn2c(C)c1CC(=O)NC(C)C | 911 s
9 | CCn1cc(C)c(C(=O)O)c1CC(=O)Nc1ccc(F)cc1F | 811 s
10 | COC(=O)c1c(NC(C)c2cccc(OC)c2)c2cccc(Cl)c2[nH]c1=O (centres undefined) | 843 s
11 | COc1ccc(-c2nc(Nc3ccc(C)cc3)sc2C)cc1 | 1060 s
12 | COC(=O)c1cccc(NC(=O)NCCn2nnc3cc(S(=O)(=O)N(C)C)ccc32)c1 | 732 s
13 | CCOC(=O)c1c(C)c(C(=O)OCC)n(C)c1C | 1080 s
14 | CC1CCN(S(=O)(=O)c2ccc(-c3nnc(C(=O)NC(C)C)o3)cc2)CC1 | 934 s
15 | CCCN(CC1CCOC1)C(=O)c1ccccc1Br (centres undefined) | 801 s
16 | CCOC(=O)Nc1csnn1 | 711 s
17 | Cc1ccc(C2NC(=O)N(CC(=O)Nc3ccc(Br)cc3F)C3=C2C(=O)OC3)cc1 (centres undefined) | 861 s
18 | O=C(CN1CCCC1=O)NCc1ccc(F)c(Cl)c1 | 667 s
19 | CCn1cc(-c2ccc(F)cc2)cc1C(=O)NCC1CCCO1 (centres undefined) | 909 s
20 | COc1ccc(OC)c(S(=O)(=O)NCCc2ncc(C)n2C(C)C)c1 | 540 s
21 | CS(=O)(=O)Nc1cccc(C2=NN(S(C)(=O)=O)C(c3cccc([N+](=O)[O-])c3)C2)c1 (centres undefined) | 740 s

Row | Structure (SMILES) | RP-LC retention time
22 | COC(=O)c1cc2ccsc2n1Cc1cccc(C#N)c1 | 1010 s
23 | COc1ccc2cccc(NC(=O)c3ccco3)c2n1 | 1010 s
24 | Cc1ccc(CNC(=O)C2(C)CCN(C(=O)Nc3ccc4c(c3)OCCO4)CC2)cc1 | 751 s
25 | CCCNC(=O)N1N=C(c2ccc(N)cc2)c2cc3c(cc2C1C)OCO3 (centres undefined) | 854 s
26 | CCOC(=O)Oc1ccc2c(=O)c(Oc3cccc(OC)c3)coc2c1 | 928 s
27 | CCOC(=O)c1[nH]c(C)c(CCC(=O)N2CCCC(C(=O)NCc3cc(OC)ccc3OC)C2)c1C (centres undefined) | 799 s
28 | CCCN1C(=O)COc2ccc(-c3noc(-c4n[nH]c5c4CCCC5)n3)cc21 | 1000 s
29 | O=C(Cn1cccc1-c1nc(-c2ccc3c(c2)OCO3)no1)NCc1ccco1 | 906 s
30 | CNC(=O)[C@H](Cc1c[nH]c2ccccc12)NC(=O)[C@@H](CC(=O)NO)CC(C)C | 662 s
31 | O=C(COc1ccc(Cl)cc1)N1CC(n2cnnc2C2CC2)C1 | 675 s
32 | CCN(CC)CCNC(=O)c1ccc2nc(C(C)C)oc2c1 | 605 s
33 | CCN1C(=O)COc2ccc(-c3noc(-c4cc(OC)cc(OC)c4)n3)cc21 | 1040 s
34 | COc1cc(C(=O)N2CCCC(C)(C(=O)NCc3ccc(C)cc3)C2)cc(OC)c1OC (centres undefined) | 820 s
35 | COc1ccc(CNC(=O)C2CN(S(=O)(=O)C3CC3)CC23CCCCC3)c(OC)c1 (centres undefined) | 815 s
36 | CCc1nnc(-c2ccc(S(=O)(=O)N3CCOCC3)o2)o1 | 714 s
37 | CCCNS(=O)(=O)c1cc(-c2nnc(-c3ccc(OC)c(OC)c3)o2)ccc1C | 901 s
38 | NC(=O)C1CCN(C(=O)c2ccc(F)cc2)CC1 | 589 s
39 | CCS(=O)(=O)c1nc2ccc(NS(=O)(=O)c3cccc(F)c3)cc2s1 | 851 s
40 | CN1C(=O)c2cccnc2Sc2cc(C(=O)NCc3cccc(Cl)c3)ccc21 | 818 s
41 | CC(C)Cc1nnc(C(=O)Nc2cccc(C(=O)NCCc3c[nH]c4ccccc34)c2)s1 | 955 s
42 | CCn1cc(-c2ccc(Cl)cc2)cc1C(=O)NCC1CCCO1 (centres undefined) | 1010 s

Continued, values first:

Row | RP-LC retention time | Structure (SMILES)
43 | 900 s | COc1ccc2nc(C(=O)N3CCN(c4ccc(Cl)cc4)CC3)cn2n1
44 | 1120 s | CC(C)Cc1ccc(S(=O)(=O)N2C[C@@H](F)C[C@H]2C(=O)N2CCc3ccccc3C2)cc1
45 | 848 s | CCSc1ccccc1C(=O)NCc1nc(COc2ccc(OC)cc2)no1
46 | 898 s | CCN(CC)C(=O)N1CCO[C@@H](COc2ccccn2)[C@@H]1c1ccccc1
47 | 944 s | COc1ccc2c(c1)C=C(C(=O)NCc1ccccc1OC)C=CO2
48 | 818 s | CN(C)c1nc(C(=O)N2CCN(c3cccc(Cl)c3)CC2)nc2c1cnn2C
49 | 672 s | CCOc1ccccc1CN1CCc2nc(N3CCN(c4ncccn4)CC3)ncc2C1
50 | 582 s | CCOC(=O)Nc1ccc(S(=O)(=O)N2CCC(c3nc4ccccc4[nH]3)CC2)cc1
51 | 598 s | O=C(c1cn(-c2ccc(S(=O)(=O)N3CCOCC3)cc2)cn1)N1CCN(c2ccccn2)CC1
52 | 803 s | CN1C(=O)C2(CCN(C(=O)CCc3ccccc3)C2)c2ccccc21 (centres undefined)
53 | 728 s | COCCc1noc(-c2cnc3nc(C)ccc3c2Nc2cccc(C)c2)n1
54 | 920 s | CCc1noc(NC(C)=O)c1-c1ccc(C)c(S(=O)(=O)N2CCc3ccccc32)c1
55 | 1070 s | CCCc1ccc(S(=O)(=O)N2CCc3c(c(-c4nnc(-c5ccccc5F)o4)nn3C)C2)cc1
56 | 727 s | O=C(Cn1c(=O)c2cc(C3CC3)nn2c2ncccc21)NCc1ccccc1
57 | 935 s | COc1ccc(-c2nc3ncc4c(=O)n(CCc5c[nH]c6ccc(F)cc56)ccc4n3n2)cc1
58 | 681 s | CN(C)CCn1nnc2cc(-c3noc(-c4ccccc4Br)n3)ccc21
59 | 565 s | O=C(c1ccco1)N1CCCN(C2CCN(Cc3ccc(F)cc3)C2=O)CC1 (centres undefined)
60 | 619 s | CCN(Cc1ccc(OC)cc1)Cc1cc(=O)n2ccc(C)cc2n1
61 | 645 s | O=S(=O)(CCCOc1ccc(F)cc1)NCc1ccccn1
62 | 614 s | Cc1ccnc(N2CCCC(C(=O)NCCN3CCN(c4ccccc4F)CC3)C2)n1 (centres undefined)
63 | 909 s | O=C(c1ccc(-c2ccsc2)nc1)N1CCN(c2ccccc2)CC1
64 | 606 s | Cc1ccc2c(Nc3cccc(Cl)c3)c(C(=O)N3CCOCC3)cnc2n1
65 | 754 s | Cc1cccc(N2CCN(C(=O)COc3ccc(NC(=O)C4CC4)cn3)CC2)c1
66 | 879 s | Cc1cc(C)cc(NC(=O)N2C[C@@H](F)C[C@H]2C(=O)N2CCc3ccccc3C2)c1

Row | RP-LC retention time | Structure (SMILES)
67 | 1020 s | CCOc1ccc(-n2c(=O)c3sccc3n(Cc3nc(-c4ccccc4Cl)no3)c2=O)cc1
68 | 1110 s | CCN1C(=O)C2(CCN(S(=O)(=O)c3cc(C)ccc3C)CC2)c2ccccc21
69 | 895 s | COc1ccc(N2CCN(c3cc(SCC(=O)Nc4cccc(C#N)c4)ncn3)CC2)cc1
70 | 785 s | CCN1CCCn2nc(C3CCN(C(=O)c4cccc(C(F)(F)F)c4)CC3)cc2C1=O
71 | 688 s | CS(=O)(=O)N1CCC(OC2CCN(C(=O)Cc3c[nH]c4ccccc34)CC2)CC1
72 | 1030 s | Cc1ccccc1Nc1c(-c2ccc(Cl)cc2)nc2cnccn12
73 | 724 s | Cc1ccc(-c2cc3c(=O)n(Cc4noc(CN5CCCCCC5)n4)ccn3n2)c(C)c1
74 | 770 s | CCNc1nc(C)cc(N2CCN(S(=O)(=O)c3ccc(Cl)c(Cl)c3)CC2)n1
75 | 1060 s | COc1cccc(NC(=O)CSc2cc(N3CCN(c4ccccc4F)CC3)ncn2)c1
76 | 810 s | CCOC(=O)C1CCN(C(=O)C2c3ccccc3C(=O)N(C)C2c2cccs2)CC1 (centres undefined)
77 | 870 s | Cc1nc(-c2cc(S(=O)(=O)NCC(=O)NCc3ccccc3Cl)c(C)s2)no1
78 | 676 s | COc1cc(NC(=O)N2CCN(c3cc(C)nc(N4CCCC4)n3)CC2)cc(OC)c1
79 | 590 s | O=C(NCCCN1CCOCC1)c1ccc(-c2c(-c3ccc(F)cc3)ncn2C2CCCC2)o1
80 | 748 s | O=C(CN1C(=O)CCS(=O)(=O)c2ccccc21)Nc1ccc(F)cc1
81 | 586 s | CN(C)C[C@@H]1CN(Cc2ccccc2)C[C@H]1NS(=O)(=O)c1cccc(F)c1
82 | 627 s | Cc1ccc(-n2c(N3CCCC(C(=O)NCc4ccncc4)C3)nc3ccsc3c2=O)cc1 (centres undefined)
83 | 698 s | COc1ccc(-c2nc(-c3ccc(-n4ccnc4)nc3)no2)c(OC)c1
84 | 747 s | CCOc1ccc(S(=O)(=O)N2CCCC(C(N)=O)C2)cc1C (centres undefined)
85 | 982 s | CCOC(=O)c1nc(N(C)c2cccc(C)c2)c2ccccc2n1
86 | 981 s | Cn1cc(C2=CCN(S(=O)(=O)c3ccc(F)c(F)c3)CC2)c2cccnc21
87 | 947 s | CC1CCN(c2nc(-c3ccc(Cl)cc3)nc3ccccc23)CC1
88 | 641 s | CCC1=C(c2ccc(C)cc2)S(=O)(=O)N=C1N1CCC(C(=O)N2CCN(C)CC2)CC1
89 | 567 s | CC1=C(C(=O)NCCCN2CC(C)CC(C)C2)C2(CCN(Cc3ccccc3)CC2)OC1=O (centres undefined)
